pIC50: −log10 of the molar value. The source made the active and inactive calls. The rule behind the calls is not given here.
Tests used:
4T1 = experiment: Antitumor activity against mouse 4T1 cells xenografted in female BALB/c mouse assessed as tumor inhibition rate at 10 mg/kg, ip administered every 2 days relative to control; format: functional; conditions: 4T1, 48 h, read-out: TGI
MCF7 [1] = experiment: Induction of apoptosis in human MCF7 cells assessed as increase in nuclear fragmentation at 2.5 uM incubated for 48 hrs by Hoechst 33342 staining based fluorescence microscopic analysis; format: functional, cell-based
MCF7 [2] = experiment: Induction of apoptosis in human MCF7 cells assessed as early apoptotic cells at 10 uM incubated for 48 hrs by Annexin V-FITC/PI staining based flow cytometric analysis (reference value: 20.2%); format: functional
MCF7 [3] = experiment: Induction of cell cycle arrest in human MCF7 cells assessed as increase in accumulation of cells at G2/M phase at 10 uM incubated for 48 hrs by PI staining based flow cytometric analysis (reference value: 6.7%); format: functional
MIA PaCa-2 [4] = experiment: Inhibition of AKT expression in human MIA PaCa-2 cells at 1.25 to 5.0 uM incubated for 48 hrs by Western blotting analysis; format: functional, cell-based; conditions: dose 1.25-5 µM
MIA PaCa-2 [5] = experiment: Induction of mitochondrial dysfunction in human MIA PaCa-2 cells assessed as decrease in MMP level at 2.5 to 5.0 uM by measuring green fluorescence incubated for 48 hrs by JC-1 staining based flow cytometric analysis; format: functional, cell-based; conditions: dose 2.5-5 µM
[6] = Toxicity in female BALB/c mouse xenografted with mouse 4T1 cells assessed as morphological change in liver at 10 mg/kg, ip administered every 2 days by H and E staining based analysis; format: organism-based; conditions: in vivo, 48 h
MCF7 [7] = experiment: Induction of apoptosis in human MCF7 cells assessed as upregulation of Bax/Bcl-2 ratio at 1.25 to 5.0 uM incubated for 48 hrs by Western blotting analysis; format: functional, cell-based; conditions: dose 1.25-5 µM
[8] = Toxicity in female BALB/c mouse xenografted with mouse 4T1 cells assessed as morphological change in lung at 10 mg/kg, ip administered every 2 days by H and E staining based analysis; format: organism-based; conditions: in vivo, 48 h
MCF7 [9] = experiment: Inhibition of cell migration in human MCF7 cells assessed as wider scratch areas incubated for 48 hrs by scratch assay; format: functional, cell-based; conditions: dose 0.5-1 µM
MCF7 [10] = experiment: Inhibition of colony formation in human MCF7 cells assessed as reduction in number of colonies at 1.0 to 2.0 uM incubated for […] by crystal violet staining based microscopic analysis; format: functional, cell-based; conditions: dose 1-2 µM
MCF7 [11] = experiment: Induction of apoptosis in human MCF7 cells assessed as late apoptotic cells at 20 uM incubated for 48 hrs by Annexin V-FITC/PI staining based flow cytometric analysis (reference value: 20.2%); format: functional
MIA PaCa-2 [12] = experiment: Induction of apoptosis in human MIA PaCa-2 cells assessed as increase in Bax/Bcl-2 ratio at 1.25 to 5.0 uM incubated for 48 hrs by Western blotting analysis; format: functional, cell-based; conditions: dose 1.25-5 µM
[13] = Toxicity in female BALB/c mouse xenografted with mouse 4T1 cells assessed as change in body weight at 10 mg/kg, ip administered every 2 days; format: organism-based; conditions: in vivo, 48 h
MCF7 [14] = experiment: Induction of apoptosis in human MCF7 cells assessed as increase in fluorescence intensity at 2.5 uM incubated for 48 hrs by Hoechst 33342 staining based fluorescence microscopic analysis; format: functional, cell-based
MCF7 [15] = experiment: Induction of mitochondrial apoptosis pathway in human MCF7 cells assessed as downregulation of pro-caspase-3 expression at 1.25 to 5.0 uM incubated for 48 hrs by Western blotting analysis; format: functional, cell-based; conditions: dose 1.25-5 µM
MCF7 [16] = experiment: Induction of apoptosis in human MCF7 cells assessed as increase in cleaved PARP level at 1.25 to 5.0 uM incubated for 48 hrs by Western blotting analysis; format: functional, cell-based; conditions: dose 1.25-5 µM
MIA PaCa-2 [17] = experiment: Induction of apoptosis in human MIA PaCa-2 cells assessed as early apoptotic cells at 10 uM incubated for 48 hrs by Annexin V-FITC/PI staining based flow cytometric analysis (reference value: 7.3%); format: functional
MIA PaCa-2 [18] = experiment: Induction of apoptosis in human MIA PaCa-2 cells assessed as upregulation of cleaved caspase-3 expression at 1.25 to 5.0 uM incubated for 48 hrs by Western blotting analysis; format: functional, cell-based; conditions: dose 1.25-5 µM
MIA PaCa-2 [19] = experiment: Induction of apoptosis in human MIA PaCa-2 cells assessed as increase in nuclear fragmentation at 2.5 uM incubated for 48 hrs by Hoechst 33342 staining based fluorescence microscopic analysis; format: functional, cell-based
MCF7 [20] = experiment: Induction of mitochondrial dysfunction in human MCF7 cells assessed as decrease in MMP level at 2.5 to 5.0 uM by measuring green fluorescence incubated for 48 hrs by JC-1 staining based flow cytometric analysis; format: functional, cell-based; conditions: dose 2.5-5 µM
MIA PaCa-2 [21] = experiment: Inhibition of cell invasion in human MIA PaCa-2 cells assessed as decrease in number of invading cells at 0.5 to 1.0 uM incubated for 48 hrs by crystal violet staining based transwell microscopic analysis relative to control; format: functional; conditions: dose 0.5-1 µM
MIA PaCa-2 [22] = experiment: Induction of mitochondrial dysfunction in human MIA PaCa-2 cells assessed as decrease in ATP level incubated for 48 hrs by ATP assay kit; format: functional, cell-based; conditions: dose 2.5-10 µM
MIA PaCa-2 [23] = experiment: Induction of cell cycle arrest in human MIA PaCa-2 cells assessed as increase in accumulation of cells at S phase at 2.5 uM incubated for 48 hrs by PI staining based flow cytometric analysis (reference value: 9.38%); format: functional
MIA PaCa-2 [24] = experiment: Induction of apoptosis in human MIA PaCa-2 cells assessed as increase in fluorescence intensity at 2.5 uM incubated for 48 hrs by Hoechst 33342 staining based fluorescence microscopic analysis; format: functional, cell-based
MCF7 [25] = experiment: Induction of apoptosis in human MCF7 cells assessed as increase in cleaved caspase-9 level at 1.25 to 5.0 uM incubated for 48 hrs by Western blotting analysis; format: functional, cell-based; conditions: dose 1.25-5 µM
MCF7 [26] = experiment: Induction of apoptosis in human MCF7 cells assessed as increase in cleaved caspase-3 level at 1.25 to 5.0 uM incubated for 48 hrs by Western blotting analysis; format: functional, cell-based; conditions: dose 1.25-5 µM
MCF7 [27] = experiment: Antiproliferative activity against human MCF7 cells assessed as inhibition of cell proliferation incubated for 48 hrs by CCK-8 assay; format: functional, cell-based; conditions: MCF7, 48 h
MIA PaCa-2 [28] = experiment: Induction of cell cycle arrest in human MIA PaCa-2 cells assessed as increase in accumulation of cells at S phase at 5.0 uM incubated for 48 hrs by PI staining based flow cytometric analysis (reference value: 9.38%); format: functional
MCF7 [29] = experiment: Inhibition of cell invasion in human MCF7 cells assessed as decrease in number of invading cells at 0.5 to 1.0 uM incubated for 48 hrs by crystal violet staining based transwell microscopic analysis; format: functional; conditions: dose 0.5-1 µM
MIA PaCa-2 [30] = experiment: Inhibition of colony formation in human MIA PaCa-2 cells assessed as reduction in number of colonies at 0.5 to 1.0 uM incubated for […] by crystal violet staining based microscopic analysis; format: functional, cell-based; conditions: dose 0.5-1 µM
MCF7 [31] = experiment: Induction of apoptosis in human MCF7 cells assessed as increase in Cyt-C level at 1.25 to 5.0 uM incubated for 48 hrs by Western blotting analysis; format: functional, cell-based; conditions: dose 1.25-5 µM
MCF7 [32] = experiment: Induction of mitochondrial dysfunction in human MCF7 cells assessed as decrease in ATP level incubated for 48 hrs by ATP assay kit; format: functional, cell-based; conditions: dose 2.5-10 µM
MIA PaCa-2 [33] = experiment: Induction of apoptosis in human MIA PaCa-2 cells assessed as upregulation of cleaved caspase-9 expression at 1.25 to 5.0 uM incubated for 48 hrs by Western blotting analysis; format: functional, cell-based; conditions: dose 1.25-5 µM

For `C=C1C(=O)[C@]23[C@H](OC(=O)c4ccc(N=C=S)cc4)[C@H]1CC[C@H]2[C@@]12CO[C@]3(O)[C@@H](O)[C@@H]1C(C)(C)CC[C@@H]2O`, the inhibition in vivo at 10 mg/kg (4T1) was 34.3%, the Activity (MCF7 [1]) was “Active” and the Activity (MCF7 [2]) was 37%. The Activity (MCF7 [3]) was 14%, the inhibition (MIA PaCa-2 [4]) was “Active” and the Activity (MIA PaCa-2 [5]) was “Active”. For the same molecule, the Activity [6] was “Non-toxic”, the Activity (MCF7 [7]) was “Active” and the Activity [8] was “Non-toxic”. For the same molecule, the inhibition (MCF7 [9]) was “Dose-dependent-effect”, the inhibition (MCF7 [10]) was “Active” and the Activity (MCF7 [11]) was 57%. The Activity (MIA PaCa-2 [12]) was “Active”, the Activity [13] was “Non-toxic” and the Activity (MCF7 [14]) was “Active”. The Activity (MCF7 [15]) was “Active”, the Activity (MCF7 [16]) was “Active” and the Activity (MIA PaCa-2 [17]) was 56.8%. For the same molecule, the Activity (MIA PaCa-2 [18]) was “Active”, the Activity (MIA PaCa-2 [19]) was “Active” and the Activity (MCF7 [20]) was “Active”. For the same molecule, the “inhibition (INH)” value (MIA PaCa-2 [21]) was ~70%, the Activity (MIA PaCa-2 [22]) was “Dose-dependent-effect” and the Activity (MIA PaCa-2 [23]) was 36%. For the same molecule, the Activity (MIA PaCa-2 [24]) was “Active”, the Activity (MCF7 [25]) was “Active” and the Activity (MCF7 [26]) was “Active”. For the same molecule, the pIC50 (MCF7 [27]) was 5.46, the Activity (MIA PaCa-2 [28]) was 46.9% and the inhibition (MCF7 [29]) was “Active”. The inhibition (MIA PaCa-2 [30]) was “Active”, the Activity (MCF7 [31]) was “Active” and the Activity (MCF7 [32]) was “Dose-dependent-effect”. For the same molecule, the Activity (MIA PaCa-2 [33]) was “Active”.
